# Assay results from patent US9533952B2, “N-prop-2-ynyl carboxamide derivatives and their use as TRPA1 antagonists” (Orion Corporation, priority 2012, dated 2017).
# pIC50: −log10 of the molar value.
# Molecular target: TRPA1 (Homo sapiens, UniProt O75762)
# Assay: Determination of TRPA1 activity in vitro (TRPA1 antagonism in vitro)
# Type: cell-based
# Details: procedure of Wei et al., Anesthesiology 111 (2009) 147-154
# Chain of TRPA1 (O75762 whole entry): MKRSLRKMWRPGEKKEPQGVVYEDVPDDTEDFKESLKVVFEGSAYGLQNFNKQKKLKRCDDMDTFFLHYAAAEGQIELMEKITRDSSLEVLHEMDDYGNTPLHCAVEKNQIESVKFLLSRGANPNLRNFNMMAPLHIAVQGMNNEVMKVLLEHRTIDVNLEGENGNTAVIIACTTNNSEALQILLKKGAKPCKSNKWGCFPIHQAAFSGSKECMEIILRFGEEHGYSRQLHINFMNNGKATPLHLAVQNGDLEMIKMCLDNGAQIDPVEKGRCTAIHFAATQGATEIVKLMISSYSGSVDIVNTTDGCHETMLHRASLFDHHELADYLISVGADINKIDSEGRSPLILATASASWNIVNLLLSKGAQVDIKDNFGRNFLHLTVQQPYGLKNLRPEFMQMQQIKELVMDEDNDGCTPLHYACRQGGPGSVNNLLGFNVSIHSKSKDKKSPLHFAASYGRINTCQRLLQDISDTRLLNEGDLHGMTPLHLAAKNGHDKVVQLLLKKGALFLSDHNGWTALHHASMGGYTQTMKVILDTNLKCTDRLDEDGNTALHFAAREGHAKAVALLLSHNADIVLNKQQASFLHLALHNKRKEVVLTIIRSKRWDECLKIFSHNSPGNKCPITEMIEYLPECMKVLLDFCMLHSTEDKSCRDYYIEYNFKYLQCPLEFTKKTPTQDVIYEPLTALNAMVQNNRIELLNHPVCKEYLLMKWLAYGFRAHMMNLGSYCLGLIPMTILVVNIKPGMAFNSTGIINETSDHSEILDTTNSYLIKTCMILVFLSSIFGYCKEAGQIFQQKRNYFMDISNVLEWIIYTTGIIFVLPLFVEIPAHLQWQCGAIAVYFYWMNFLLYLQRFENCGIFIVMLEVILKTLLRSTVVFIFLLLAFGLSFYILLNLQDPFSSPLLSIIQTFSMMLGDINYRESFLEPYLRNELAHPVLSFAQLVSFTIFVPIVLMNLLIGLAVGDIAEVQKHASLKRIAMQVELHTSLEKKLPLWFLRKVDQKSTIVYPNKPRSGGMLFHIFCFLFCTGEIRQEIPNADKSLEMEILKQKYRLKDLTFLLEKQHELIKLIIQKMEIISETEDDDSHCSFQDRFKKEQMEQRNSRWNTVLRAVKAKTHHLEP
row,SMILES,pIC50
1,"C#CC(C)(C)NC(=O)c1cccnc1NC1CC(F)(F)C1 [Example 133, 2-(3,3-Difluorocyclobutylamino)-N-(2-methylbut-3-yn-2-yl)nicotinamide]",5.23
2,"C#CC(C)(C)NC(=O)c1ccncc1Nc1ccc(Cl)cc1 [Example 134, 3-((4-Chlorophenyl)amino)-N-(2-methylbut-3-yn-2-yl)isonicotinamide]",5.37
3,"C#CC(C)(C)NC(=O)c1cc(F)cc(F)c1NCCC(F)F [Example 135, 2-(3,3-Difluoropropylamino)-3,5-difluoro-N-(2-methylbut-3-yn-2-yl)benzamide]",5.30
4,"C#CC(C)(C)NC(=O)c1sccc1NCC(C)C [Example 136, 3-(Isobutylamino)-N-(2-methylbut-3-yn-2-yl)thiophene-2-carboxamide]",5.06
5,"C#CC(C)(C)NC(=O)c1cc(F)cnc1Nc1cc(C)ns1 [Example 137, 5-Fluoro-N-(2-methylbut-3-yn-2-yl)-2-(3-methylisothiazol-5-ylamino)nicotinamide]",5.00
6,"C#CC(C)(C)NC(=O)c1cc(Cl)cnc1Nc1cccnc1 [Example 138, 5-Chloro-N-(2-methylbut-3-yn-2-yl)-2-(pyridin-3-ylamino)nicotinamide]",4.92
7,"C#CC(C)(C)NC(=O)c1cc(Cl)cnc1NC1CC(F)(F)C1 [Example 139, 5-Chloro-2-(3,3-difluorocyclobutylamino)-N-(2-methylbut-3-yn-2-yl)nicotinamide]",6.52
8,"C#CC(C)(C)NC(=O)c1cc(F)cnc1Nc1ccc(C2CCCC2)nc1 [Example 140, 2-(6-Cyclopentylpyridin-3-ylamino)-5-fluoro-N-(2-methylbut-3-yn-2-yl)nicotinamide]",5.26
9,"C#CC(C)(C)NC(=O)c1cc(C(F)(F)F)cnc1NC1CC(F)(F)C1 [Example 141, 2-(3,3-Difluorocyclobutylamino)-N-(2-methylbut-3-yn-2-yl)-5-(trifluoromethyl)nicotinamide]",6.52
10,"C#CC(C)(C)NC(=O)c1cccnc1NCCc1ccccc1 [Example 142, N-(2-Methylbut-3-yn-2-yl)-2-(phenethylamino)nicotinamide]",5.24
11,"C#CC(C)(C)NC(=O)c1cccnc1NCCCc1ccccc1 [Example 143, N-(2-Methylbut-3-yn-2-yl)-2-(3-phenylpropylamino)nicotinamide]",5.42
12,"C#CC(C)(C)NC(=O)c1cc(F)cnc1NCCCOc1ccc(F)cc1 [Example 144, 5-Fluoro-2-(3-(4-fluorophenoxy)propylamino)-N-(2-methylbut-3-yn-2-yl)nicotinamide]",5.59
13,"C#CC(C)(C)NC(=O)c1cc(F)cnc1NCCOc1ccc(F)cc1 [Example 145, 5-Fluoro-2-(2-(4-fluorophenoxy)ethylamino)-N-(2-methylbut-3-yn-2-yl)nicotinamide]",5.48
14,"C#CC(C)(C)NC(=O)c1cc(Cl)cnc1NCCCOCC [Example 146, 5-Chloro-2-(3-ethoxypropylamino)-N-(2-methylbut-3-yn-2-yl)nicotinamide]",5.23
15,"C#CC(C)(C)NC(=O)c1cc(Cl)cnc1NCCOC(C)(C)C [Example 147, 2-(2-tert-Butoxyethylamino)-5-chloro-N-(2-methylbut-3-yn-2-yl)nicotinamide]",5.28
16,"C#CC(C)(C)NC(=O)c1cc(Cl)cnc1NCCOCC [Example 148, 5-Chloro-2-(2-ethoxyethylamino)-N-(2-methylbut-3-yn-2-yl)nicotinamide]",4.83
17,"C#CC(C)(C)NC(=O)c1cccnc1Nc1ccc(C)c(F)c1 [Example 149, 2-(3-Fluoro-4-methylphenylamino)-N-(2-methylbut-3-yn-2-yl)nicotinamide]",6.30
18,"C#CC(C)(C)NC(=O)c1cccnc1Nc1ccc(OC)c(Cl)c1 [Example 150, 2-(3-Chloro-4-methoxyphenylamino)-N-(2-methylbut-3-yn-2-yl)nicotinamide]",5.72
19,"C#CC(C)(C)NC(=O)c1cccnc1Nc1cc(F)cc(F)c1 [Example 151, 2-(3,5-Difluorophenylamino)-N-(2-methylbut-3-yn-2-yl)nicotinamide]",6.30
20,"C#CC(C)(C)NC(=O)c1cc(C(F)F)cnc1NC1CC(F)(F)C1 [Example 152, 2-(3,3-Difluorocyclobutylamino)-5-(difluoromethyl)-N-(2-methylbut-3-yn-2-yl)nicotinamide]",5.62
21,"C#CC(C)(C)NC(=O)c1cc(OCC)ccc1NCCC [Example 154, 5-Ethoxy-N-(2-methylbut-3-yn-2-yl)-2-(propylamino)benzamide]",5.15
22,"C#CC(C)(C)NC(=O)c1cc(Cl)cnc1NC(C)(C)C [Example 155, 2-(tert-Butylamino)-5-chloro-N-(2-methylbut-3-yn-2-yl)nicotinamide]",6.10
23,"C#CC(C)(C)NC(=O)c1cc(F)cnc1NC1CC(F)(F)C1 [Example 156, 2-(3,3-Difluorocyclobutylamino)-5-fluoro-N-(2-methylbut-3-yn-2-yl)nicotinamide]",5.80
24,"C#CC(C)(C)NC(=O)c1cc(F)cnc1Nc1ccc(F)cc1 [Example 157, 5-Fluoro-2-(4-fluorophenylamino)-N-(2-methylbut-3-yn-2-yl)nicotinamide]",6.15

row,SMILES,pIC50
1,"C#CC(C)(C)NC(=O)c1cc(F)cnc1NC(C)C(F)(F)F (centres unmarked) [Example 158, 5-Fluoro-N-(2-methylbut-3-yn-2-yl)-2-(1,1,1-trifluoropropan-2-ylamino)nicotinamide]",5.40
2,"C#CC(C)(C)NC(=O)c1cnccc1Nc1ccc(Cl)cc1 [Example 159, 4-(4-Chlorophenylamino)-N-(2-methylbut-3-yn-2-yl)nicotinamide]",4.94
3,"C#CC(C)(C)NC(=O)c1cc(F)cnc1Nc1ccccc1 [Example 160, 5-Fluoro-N-(2-methylbut-3-yn-2-yl)-2-(phenylamino)nicotinamide]",5.85
4,"C#CC(C)(C)NC(=O)c1cncnc1Nc1ccc(C(F)(F)F)cc1 [Example 161, N-(2-Methylbut-3-yn-2-yl)-4-(4-(trifluoromethyl)phenylamino)-pyrimidine-5-carboxamide]",5.89
5,"C#CC(C)(C)NC(=O)c1cc(F)cnc1NC(C)(C)C [Example 162, 2-(tert-Butylamino)-5-fluoro-N-(2-methylbut-3-yn-2-yl)nicotinamide]",5.43
6,"C#CC(CC)(CC)NC(=O)c1cc(F)cnc1NC1CC(F)(F)C1 [Example 163, 2-(3,3-Difluorocyclobutylamino)-N-(3-ethylpent-1-yn-3-yl)-5-fluoronicotinamide]",7.00
7,"C#CC(C)(CC)NC(=O)c1cc(F)cnc1NC1CC(F)(F)C1 (centres unmarked) [Example 164, 2-(3,3-Difluorocyclobutylamino)-5-fluoro-N-(3-methylpent-1-yn-3-yl)nicotinamide]",7.00
8,"C#CC(C)(C)NC(=O)c1cccnc1Nc1cc(F)cc(OC)c1 [Example 165, 2-(3-Fluoro-5-methoxyphenylamino)-N-(2-methylbut-3-yn-2-yl)nicotinamide]",5.40
9,"C#CC(C)(CC)NC(=O)c1cccnc1Nc1cc(F)cc(OC)c1 (centres unmarked) [Example 166, 2-(3-Fluoro-5-methoxyphenylamino)-N-(3-methylpent-1-yn-3-yl)nicotinamide]",6.22
10,"C#CC(C)(C)NC(=O)c1cccnc1Nc1cc(Cl)cc(OC)c1 [Example 167, 2-(3-Chloro-5-methoxyphenylamino)-N-(2-methylbut-3-yn-2-yl)nicotinamide]",5.49
11,"C#CC(C)(CC)NC(=O)c1cccnc1Nc1cc(Cl)cc(OC)c1 (centres unmarked) [Example 168, 2-(3-Chloro-5-methoxyphenylamino)-N-(3-methylpent-1-yn-3-yl)nicotinamide]",6.10
12,"C#CC(C)(C)NC(=O)c1cccnc1Nc1cccc(OC)c1F [Example 169, 2-(2-Fluoro-3-methoxyphenylamino)-N-(2-methylbut-3-yn-2-yl)nicotinamide]",4.46
13,"C#CC(C)(CC)NC(=O)c1cccnc1Nc1cccc(OC)c1F (centres unmarked) [Example 170, 2-(2-Fluoro-3-methoxyphenylamino)-N-(3-methylpent-1-yn-3-yl)nicotinamide]",5.31
14,"C#CC(C)(CC)NC(=O)c1cc(F)cnc1Nc1ccc(F)cc1 (centres unmarked) [Example 171, 5-Fluoro-2-(4-fluorophenylamino)-N-(3-methylpent-1-yn-3-yl)nicotinamide]",6.52
15,"C#CC(C)(CC)NC(=O)c1cc(F)cnc1Nc1ccccc1 (centres unmarked) [Example 172, 5-Fluoro-N-(3-methylpent-1-yn-3-yl)-2-(phenylamino)nicotinamide]",6.52
16,"C#CC(C)(C)NC(=O)c1cccnc1Nc1ccc(F)cc1F [Example 173, 2-(2,4-Difluorophenylamino)-N-(2-methylbut-3-yn-2-yl)nicotinamide]",5.72
17,"C#CC(C)(CC)NC(=O)c1cccnc1Nc1ccc(F)cc1F (centres unmarked) [Example 174, 2-(2,4-Difluorophenylamino)-N-(3-methylpent-1-yn-3-yl)nicotinamide]",6.40
18,"C#CC(C)(C)NC(=O)c1cc(F)cnc1Nc1cccc(F)c1 [Example 175, 5-Fluoro-2-(3-fluorophenylamino)-N-(2-methylbut-3-yn-2-yl)nicotinamide]",6.05
19,"C#CC(C)(CC)NC(=O)c1cc(F)cnc1Nc1cccc(F)c1 (centres unmarked) [Example 176, 5-Fluoro-2-(3-fluorophenylamino)-N-(3-methylpent-1-yn-3-yl)nicotinamide]",6.52
20,"C#CC(C)(CC)NC(=O)c1cc(Cl)cnc1NC1CC(F)(F)C1 (centres unmarked) [Example 177, 5-Chloro-2-(3,3-difluorocyclobutylamino)-N-(3-methylpent-1-yn-3-yl)nicotinamide]",6.52
21,"C#CC(C)(CC)NC(=O)c1cc(F)cnc1Nc1cccc(C#N)c1 (centres unmarked) [Example 178, 2-(3-Cyanophenylamino)-5-fluoro-N-(3-methylpent-1-yn-3-yl)nicotinamide]",6.05
22,"C#CC(C)(C)NC(=O)c1cccnc1Nc1cc(OC)ccc1F [Example 179, 2-(2-Fluoro-5-methoxyphenylamino)-N-(2-methylbut-3-yn-2-yl)nicotinamide]",4.97
23,"C#CC(C)(CC)NC(=O)c1cccnc1Nc1cc(OC)ccc1F (centres unmarked) [Example 180, 2-(2-Fluoro-5-methoxyphenylamino)-N-(3-methylpent-1-yn-3-yl)nicotinamide]",5.85
